Source: BindingDB's records for doi:10.1016/S0960-894X(01)80688-0 (1994)

Key:
[1] = Inhibitory activity was determined against bovine liver beta galactosidase
[2] = Inhibitory activity was determined against Escherichia coli beta galactosidase
[3] = Inhibitory activity was determined against almonds Beta-glucosidase

IC50 [1] | IC50 [2] | IC50 [3] | SMILES
3 µM | > 300 µM | > 300 µM | OCC1C(O)C(O)C2OC(Nc3ccccc3)=NC12 (stereo unspecified) [4-Hydroxymethyl-2-phenylamino-4,5,6,6a-tetrahydro-3aH-cyclopentaoxazole-5,6-diol]
153 µM | > 300 µM | > 300 µM | OCC1(O)C(O)C(O)C2N=C(Nc3ccccc3)OC21 (stereo unspecified) [6-Hydroxymethyl-2-phenylamino-4,5,6,6a-tetrahydro-3aH-cyclopentaoxazole-4,5,6-triol]
